Here are results for ten compounds from PubChem BioAssay AID250 (DTP/NCI, 2004).

Where “and” joins values, the source holds several entries; their conditions need not be identical. Equal entries are not always repeated. Toxic doses and inconclusive results are not listed.

The subject of this assay is BDF1 mice, L1210 leukemia sc, survival T/C. As to the kind of experiment: NCI In Vivo Anticancer Drug Screen. Data for tumor model L1210 Leukemia (subcutaneous) in B6D2F1 (BDF1) mice. The settings on record: endpoint: median survival time, higher = longer survival. The essentials:
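Read-out: T/C ratio, i.e. survival or tumor size in treated mice over that in vehicle-treated controls, from mice bearing transplantable tumors.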

Setting [1] is: dose: 14.0 mg/kg/injection, schedule: Q01DX Z (sc), vehicle: methylcellulose (MC).
The mark [2] stands for this setting: dose: 500.0 mg/kg/injection, schedule: Q01DX Z (sc), vehicle: methylcellulose (MC).
Where [3] appears, read: dose: 39.0 mg/kg/injection, schedule: Q01DX Z (sc), vehicle: methylcellulose (MC).
Setting [4] is: dose: 23.0 mg/kg/injection, schedule: Q01DX Z (sc), vehicle: methylcellulose (MC).
The mark [5] stands for this setting: dose: 65.0 mg/kg/injection, schedule: Q01DX Z (sc), vehicle: methylcellulose (MC).
Setting [6] is: dose: 108.0 mg/kg/injection, schedule: Q01DX Z (sc), vehicle: methylcellulose (MC).

On to `CN(C)c1ccc(/C=C/c2ccnc3ccccc23)cc1`, for which the T/C by setting is: (dose: 0.65 mg/kg/injection, schedule: Q01DX Z (sc), vehicle: water) 100 % of control; (dose: 1.08 mg/kg/injection, schedule: Q01DX Z (sc), vehicle: water) 100 % of control; (dose: 1.8 mg/kg/injection, schedule: Q01DX Z (sc), vehicle: water) 104 % of control; (dose: 3.0 mg/kg/injection, schedule: Q01DX Z (sc), vehicle: water) 100 % of control; (dose: 5.0 mg/kg/injection, schedule: Q01DX Z (sc), vehicle: water) 100 % of control; (dose: 6.0 mg/kg/injection, schedule: Q01DX Z (sc), vehicle: water) 100 % of control. Moreover, the T/C is 100 % of control (dose: 8.4 mg/kg/injection, schedule: Q01DX Z (sc), vehicle: water); 100 % of control (dose: 10.0 mg/kg/injection, schedule: Q01DX Z (sc), vehicle: water); 100 % of control (dose: 14.0 mg/kg/injection, schedule: Q01DX Z (sc), vehicle: water); 100 % of control (dose: 17.0 mg/kg/injection, schedule: Q01DX Z (sc), vehicle: water); 100 % of control (dose: 28.0 mg/kg/injection, schedule: Q01DX Z (sc), vehicle: water); 100 % of control (dose: 47.0 mg/kg/injection, schedule: Q01DX Z (sc), vehicle: water). Moreover, the T/C (dose: 78.0 mg/kg/injection, schedule: Q01DX Z (sc), vehicle: water) is 110 % of control and the T/C (dose: 130.0 mg/kg/injection, schedule: Q01DX Z (sc), vehicle: water) is 100 % of control.

With `CC(=O)NC1=C(N2CC2)C(=O)C(NC(C)=O)=C(N2CC2)C1=O`, the T/C (dose: 1.08 mg/kg/injection, schedule: Q01DX Z (sc), vehicle: saline) is 213 % of control; the T/C (dose: 1.8 mg/kg/injection, schedule: Q01DX Z (sc), vehicle: saline) was 163 % of control; the T/C (dose: 5.0 mg/kg/injection, schedule: Q01DX Z (sc), vehicle: saline) was 118 % of control; the T/C (dose: 8.4 mg/kg/injection, schedule: Q01DX Z (sc), vehicle: saline) is 109 % of control.

Take `CCCCCCCCCCCCCCCC(=O)OCC1OC(n2ccc(N)nc2=O)C(O)C1O` (centres undefined): the T/C by setting is: (dose: 9.38 mg/kg/injection, schedule: Q01DX009 (ip), vehicle: saline) 211 % of control; (dose: 9.38 mg/kg/injection, schedule: Q01DX009 (sc), vehicle: saline) 177 % of control; (dose: 18.75 mg/kg/injection, schedule: Q01DX009 (ip), vehicle: saline) 233 % of control; (dose: 18.75 mg/kg/injection, schedule: Q01DX009 (sc), vehicle: saline) 233 % of control; (dose: 18.75 mg/kg/injection, schedule: Q04DX003 (sc), vehicle: saline) 183 % of control; (dose: 37.5 mg/kg/injection, schedule: Q01DX001 (ip), vehicle: saline) 155 % of control. Also, the T/C is, setting by setting: (dose: 37.5 mg/kg/injection, schedule: Q01DX001 (sc), vehicle: saline) 161 % of control; (dose: 37.5 mg/kg/injection, schedule: Q01DX009 (sc), vehicle: saline) 188 % of control; (dose: 37.5 mg/kg/injection, schedule: Q04DX003 (ip), vehicle: saline) 216 % of control; (dose: 37.5 mg/kg/injection, schedule: Q04DX003 (sc), vehicle: saline) 233 % of control; (dose: 75.0 mg/kg/injection, schedule: Q01DX001 (ip), vehicle: saline) 194 % of control; (dose: 75.0 mg/kg/injection, schedule: Q01DX001 (sc), vehicle: saline) 95 % of control and 98 % of control and 233 % of control. For the same compound, the T/C (dose: 75.0 mg/kg/injection, schedule: Q01DX009 (sc), vehicle: saline) was 150 % of control; the T/C (dose: 75.0 mg/kg/injection, schedule: Q04DX003 (ip), vehicle: saline) was 227 % of control; the T/C (dose: 75.0 mg/kg/injection, schedule: Q04DX003 (sc), vehicle: saline) was 244 % of control; the T/C (dose: 150.0 mg/kg/injection, schedule: Q01DX001 (ip), vehicle: saline) is 255 % of control; the T/C (dose: 150.0 mg/kg/injection, schedule: Q01DX001 (sc), vehicle: saline) was 95 % of control and 98 % of control and 238 % of control; the T/C (dose: 150.0 mg/kg/injection, schedule: Q01DX009 (ip), vehicle: saline) was 122 % of control. Also, the T/C was 177 % of control (dose: 150.0 mg/kg/injection, schedule: Q04DX003 (ip), vehicle: saline); 150 % of control (dose: 150.0 mg/kg/injection, schedule: Q04DX003 (sc), vehicle: saline); 116 % of control (dose: 600.0 mg/kg/injection, schedule: Q01DX001 (ip), vehicle: saline).

Turning to `CCCCSc1ncnc2nc[nH]c12`, the T/C is 90 % of control under setting [1]; 100 % of control (dose: 23.3 mg/kg/injection, schedule: Q01DX Z (sc), vehicle: methylcellulose (MC)); 104 % of control (dose: 38.9 mg/kg/injection, schedule: Q01DX Z (sc), vehicle: methylcellulose (MC)); 113 % of control under setting [2]; 100 % of control (dose: 833.0 mg/kg/injection, schedule: Q01DX Z (sc), vehicle: methylcellulose (MC)).

On to `Cn1cnc([N+](=O)[O-])c1Sc1ncnc2nc[nH]c12`, for which the T/C (dose: 3.0 mg/kg/injection, schedule: Q01DX Z (oral), vehicle: methylcellulose (MC)) was 100 % of control; the T/C (dose: 5.0 mg/kg/injection, schedule: Q01DX Z (sc), vehicle: methylcellulose (MC)) is 100 % of control; the T/C (dose: 8.4 mg/kg/injection, schedule: Q01DX Z (sc), vehicle: methylcellulose (MC)) was 100 % of control; the T/C under setting [1] is 100 % of control; the T/C (dose: 23.0 mg/kg/injection, schedule: Q01DX Z (oral), vehicle: methylcellulose (MC)) was 100 % of control; the T/C (dose: 28.0 mg/kg/injection, schedule: Q01DX Z (sc), vehicle: methylcellulose (MC)) is 110 % of control. Besides, the T/C by setting is: (dose: 39.0 mg/kg/injection, schedule: Q01DX Z (oral), vehicle: methylcellulose (MC)) 100 % of control; under setting [3], 100 % of control; (dose: 47.0 mg/kg/injection, schedule: Q01DX Z (sc), vehicle: methylcellulose (MC)) 115 % of control; (dose: 65.0 mg/kg/injection, schedule: Q01DX Z (oral), vehicle: methylcellulose (MC)) 100 % of control; (dose: 78.0 mg/kg/injection, schedule: Q01DX Z (sc), vehicle: methylcellulose (MC)) 120 % of control; (dose: 360.0 mg/kg/injection, schedule: Q01DX Z (sc), vehicle: methylcellulose (MC)) 110 % of control. Also, the T/C (dose: 500.0 mg/kg/injection, schedule: Q01DX Z (oral), vehicle: methylcellulose (MC)) was 155 % of control; the T/C under setting [2] is 122 % of control; the T/C (dose: 600.0 mg/kg/injection, schedule: Q01DX Z (sc), vehicle: methylcellulose (MC)) is 105 % of control.

Turning to `CS(=O)(=O)OCCCl`, the T/C reads like this: under setting [1], 90 % of control; under setting [4], 95 % of control; under setting [3], 90 % of control; under setting [5], 100 % of control.

`NS(=O)(=O)c1ncnc2nc[nH]c12`: the T/C reads like this: under setting [5], 100 % of control; under setting [6], 105 % of control.

On to `CN1c2c(nc(N)[nH]c2=O)NCC1CCNc1ccc(C(=O)NC(CCC(=O)O)C(=O)O)cc1` (centres undefined), for which the T/C was 100 % of control (dose: 6.25 mg/kg/injection, schedule: Q01DX012 (ip), vehicle: other); 111 % of control (dose: 12.5 mg/kg/injection, schedule: Q01DX012 (ip), vehicle: other); 122 % of control (dose: 25.0 mg/kg/injection, schedule: Q01DX012 (ip), vehicle: other); 122 % of control (dose: 50.0 mg/kg/injection, schedule: Q01DX012 (ip), vehicle: other).

Take `CC[C@H](c1ccc(O)cc1)[C@@H](CC)c1ccc(O)cc1`: the T/C reads like this: under setting [3], 100 % of control; under setting [5], 100 % of control; under setting [6], 100 % of control.

As for `CC(C)Sc1nc(N)nc2nc[nH]c12`, the T/C is, setting by setting: under setting [4], 100 % of control; under setting [3], 100 % of control; under setting [5], 111 % of control; under setting [6], 111 % of control; (dose: 180.0 mg/kg/injection, schedule: Q01DX Z (sc), vehicle: methylcellulose (MC)) 111 % of control; (dose: 300.0 mg/kg/injection, schedule: Q01DX Z (sc), vehicle: methylcellulose (MC)) 105 % of control. The T/C under setting [2] is 111 % of control.
